Measurements reported in patent publication US20240254143A1, “OREXIN RECEPTOR AGONISTS AND USES THEREOF” (JAZZ PHARMACEUTICALS IRELAND LIMITED, priority 2021, published 2024).

Biological target: T1, human recombinant OX2 (hOX2) receptor (Homo sapiens, UniProt O43614)
T1 construct: host or cells: CHO cells
T1 sequence (O43614 1-444): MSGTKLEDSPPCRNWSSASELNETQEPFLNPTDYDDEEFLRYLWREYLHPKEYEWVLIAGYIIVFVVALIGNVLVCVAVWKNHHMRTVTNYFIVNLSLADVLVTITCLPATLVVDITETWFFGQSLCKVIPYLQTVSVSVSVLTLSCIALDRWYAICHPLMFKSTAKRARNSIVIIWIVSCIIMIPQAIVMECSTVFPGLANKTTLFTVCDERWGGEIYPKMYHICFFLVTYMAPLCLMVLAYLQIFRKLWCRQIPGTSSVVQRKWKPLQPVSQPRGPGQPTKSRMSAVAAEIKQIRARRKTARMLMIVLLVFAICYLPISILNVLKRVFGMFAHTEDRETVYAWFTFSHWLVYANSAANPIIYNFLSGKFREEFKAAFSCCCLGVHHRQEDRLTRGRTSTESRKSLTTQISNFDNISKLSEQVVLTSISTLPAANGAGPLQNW
Experiment: IP-1 accumulation assay (IP-One HTRF) in hOX2-CHO cells
Assay type: cell-based
Conditions: 60 min at 37° C., mean of at least two independent experiments, read-out: EC50_OX2R Category
In short: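 hOX2 receptor expressed in CHO cells, seeded in suspension in HBSS with 20 mM HEPES pH 7.4, LiCl and 0.1% BSA; compounds tested as 11-point CRC (0.5% DMSO final), 60 min at 37 °C. IP-1 read by HTRF (665/615 ratio) after 60 min lysis at room temperature; response as % of maximal OX-A response, EC50 by four-parameter logistic fit, mean of ≥2 experiments in duplicate.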

EC50	Compound
> 10 µM	O=C1NC2(CCCN(CC(F)(F)F)C2CO[C@H]2CC[C@@H](c3ccccc3)CC2)CCO1 (mixture of isomers) [Example 68, rel-(6R,7R)-7-({[(CIS)-4-phenylcyclohexyl]oxy}methyl)-8-(2,2,2-trifluoroethyl)-3-oxa-1,8-diazaspiro[5.5] undecan-2-one]
> 10 µM	CCNC(=O)N1[C@H](C)C[C@]2(COCC(=O)N2)[C@H]1CO[C@H]1CC[C@@H](c2ccccc2)CC1 [Example 48, (1S,3R,5R)-N-ethyl-3-methyl-7-oxo-1-({[(CIS)-4-phenylcyclohexyl]oxy}methyl)-9-oxa-2,6-diazaspiro[4.5] decane-2-carboxamide]
